{
  "source": "patent US4666886A",
  "about": "“Novel peptide derivatives” (Ciba-Geigy Corporation, priority 1983, dated 1987)",
  "test_system": "Alveolar rat macrophages",
  "assay": "Activation of alveolar rat macrophages: specific cytotoxicity against 125I-marked tumour cells",
  "assay_type": "cell-based",
  "description": "Alveolar rat macrophages are obtained by lung lavage, plated out and incubated in vitro from 24 hours either with liposomes that are charged with the active ingredient, or with the active ingredient in physiological salt solution (phosphate buffered saline, PBS), ^125 I-marked tumour cells are added and incubation is continued for a further 72 hours. Subsequently the dead tumour cells are washed away and the number of tumour cells still living is determined on the basis of their radioactivity. The macrophage activation is assessed on the basis of the cytotoxicity, that is to say according to the proportion of tumour cells dead at the end of the test. The specific cytotoxicity [%] is calculated as follows: [formula] Further details of the above-mentioned test method are described in I. J. Fidler et al., J. Biol. Response Modifiers 1, 43-55 (1982).",
  "note": "Square brackets hold non-standard residues; d marks the D form. Peptide text beside a SMILES is read from it. * marks the point of attachment. X2 = CCCCCCCCCCCC(=O)OC[C@H](C*)OC(=O)CCCCCCCCCCC; Palmitoyl = CCCCCCCCCCCCCCCC(=O)*",
  "data": [
    {"smiles": "CCCCCCCCCCCCCCCC(=O)N[C@@H](CSC[C@@H](COC(=O)CCCCCCCCCCC)OC(=O)CCCCCCCCCCC)C(=O)N[C@H](C)C(=O)N[C@@H](C)C(=O)N[C@H](CCC(=O)O)C(N)=O", "note": "[R, palmitoyl-Cys(2[R], 3-dilauroyloxy-propyl)-D-Ala-Ala-D-Glu-NH2] (Palmitoyl-C(X2)[dA]A[dE]-NH2)", "values": [
      {"measurement": "Specific cytotoxicity [%]", "setting": "active ingredient in 100 μg of liposomes per 0.2 ml, 0.02 μg/culture", "result": 20, "unit": "%"},
      {"measurement": "Specific cytotoxicity [%]", "setting": "active ingredient in 100 μg of liposomes per 0.2 ml, 0.2 μg/culture", "result": 18, "unit": "%"},
      {"measurement": "Specific cytotoxicity [%]", "setting": "active ingredient in 100 μg of liposomes per 0.2 ml, 2 μg/culture", "result": 86, "unit": "%"},
      {"measurement": "Specific cytotoxicity [%]", "setting": "active ingredient in 0.2 ml of PBS, 0.02 μg/culture", "result": 0, "unit": "%"},
      {"measurement": "Specific cytotoxicity [%]", "setting": "active ingredient in 0.2 ml of PBS, 0.2 μg/culture", "result": 84, "unit": "%"},
      {"measurement": "Specific cytotoxicity [%]", "setting": "active ingredient in 0.2 ml of PBS, 2 μg/culture", "result": 51, "unit": "%"}
    ]}
  ]
}
